The text below walks through data of patent US20260166159A1, “KRAS G12D DEGRADATION AGENT, AND PREPARATION METHOD AND USE THEREFOR” (LEADINGTAC PHARMACEUTICAL (SHAOXING) CO., LTD., priority 2022, published 2026).

Experiment [1] addresses T1, KRAS-G12D (Homo sapiens, UniProt P01116, G12D).
T1 construct: endogenous in cells; host or cells: A-427 (ATCC), AGS, AsPc-1, Panc 04.03
Description: KRAS-G12D degradation assay (Western Blot), A-427 cells. It is filed as cell-based. Conditions: A427 cells, 24 h, numeric values. The method, boiled down:
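Western blotting of lysates (5 μg protein) quantified KRAS against a β-actin reference after 24 h exposure to compound at final 0.03–3000 nM in 0.25% DMSO. Cells were A-427, AGS, AsPc-1 or Panc 04.03, all KRAS G12D, at 5×10^5/well. Degradation versus control yielded DC50 and Dmax.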
For orientation: Immunoblotting shows a protein as a band on a membrane.

The target of experiment [2] is T1, KRAS-G12D. The experiment is described as follows: KRAS-G12D degradation assay (Western Blot), AsPc-1 cells. It is filed as cell-based. The conditions noted are these: for DC50: 24 h; for Dmax: ASPC1, 24 h. Here is the method:
The degradation effects of the compounds on KRAS-G12D were investigated on KRAS G12D mutant human lung cancer cell A-427 (ATCC), KRAS G12D mutant human gastric cancer cell AGS, KRAS G12D mutant human metastatic pancreatic cancer cell AsPc-1, and KRAS G12D mutant human pancreatic adenocarcinoma cell Panc 04.03. The specific procedures were as follows: 0.95 mL of cells were seeded into each well of a 24-well cell culture plate to achieve a cell density of 5×10^5 cells/well; and the cell plate was incubated in an incubator at 37° C. with 5% CO2 overnight. Then 50 μL of the compound solution after dilution was added to each of the wells with the corresponding cells, so that the final concentration of the compound was in a range of 0.03-3000 nM. The final concentration of DMSO was 0.25%. After the compounds were added, the cell plate was incubated in the incubator at 37° C. with 5% CO2 for 24 h. The culture medium in the 24-well cell culture plate was removed, and the plate was washed twice with 1×PBS (KeyGEN). 120 μL of RIPA (strong) lysis buffer (Beyotime) supplemented with 1 mM phenylmethylsulfonyl fluoride, a protease inhibitor mixture (Beyotime), and a protease phosphatase inhibitor mixture (Beyotime) was added to lyse adherent A-427 cells at the bottom of the cell culture plate. After the plate was left to stand on ice for 30 min, the protein lysate in each well was transferred to a 1.5 mL centrifuge tube and centrifuged at 15000 g for 20 min at 4° C. The cell lysate supernatants after centrifugation were cryopreserved in a refrigerator at −80° C. for later use.
After the samples of the cell lysate supernatants that had been prepared were thawed from the refrigerator at −80° C., the total protein concentrations of the cell lysates were determined using a BCA protein quantification kit (Tiangen). The total protein concentrations of the samples were then adjusted to 0.5 μg/μL with PBS and 5×SDS-PAGE protein loading buffer (Beyotime), and the samples were incubated in a water bath at 100° C. for 15 min. The samples were then incubated in an ice bath for 5 min and centrifuged at 14000 g for 1 min at 4° C., and the supernatants were mixed well as loading samples for the Western Blot assay. The samples were loaded into wells of a 10% precast gel (KeyGEN) with a loading volume of 10 μL (total protein: 5 μg), a sufficient Tris-MOPS-SDS running buffer (Adamas) was added, and then electrophoresis was performed at a constant voltage of 120 V for 55 min. After the electrophoresis, the proteins on the gel were transferred to PVDF membranes at a constant current of 250 mA for 55 min. After the membrane transfer, the PVDF membranes were incubated in 1× Quick Block blocking buffer (Beyotime) at room temperature for 30 min. After the blocking, the PVDF membranes were separately incubated at 4° C. overnight with the KRAS antibody (Abcam) diluted in a ratio of 1:1000 and the […] antibody (Abcam) diluted in a ratio of 1:2000 in 5% BSA as the diluent, and then washed with 1×TBST buffer (2.4 g of Tris, 8.8 g of NaCl, 1.5 mL of Tween 20, with pH adjusted to 7.4, with the volume brought to 1 L) 3 times for 10 min/time. The membranes were incubated with a secondary antibody (Abcam) diluted in 5% BSA at room temperature for 2 h, and then washed with 1×TBST buffer 3 times for 10 min/time. Finally, the membranes were incubated with Clarity Western ECL Substrate (BIO-RAD) for 5 min for luminescence and color development, and a ChemiScope 6200 Touch chemiluminescence imaging system (Clinx) was used for color development and protein mapping. Gray value analysis of the protein maps was performed using the chemiluminescence analysis software (Clinx). The gray correction value for each sample was calculated using the formula: gray correction value=(gray value of target protein/gray value of corresponding internal reference)×10^3. Then degradation rates were calculated by comparison with the gray correction value of the control group. […]

Experiment [3] has as its system KRAS G12D mutant human metastatic pancreatic cancer cell AsPc-1. The experiment is described as follows: 3D cell proliferation inhibition assay, AsPc-1. It is filed as cell-based. Conditions: ASPC1, 168 h, AsPc-1, 7 days, CTG, numeric values. From the text:
(§1) The inhibitory effects of the compounds on 3D cell proliferation were investigated on KRAS G12D mutant human lung cancer cell A427, KRAS G12D mutant human gastric cancer cell AGS, KRAS G12D mutant human metastatic pancreatic cancer cell AsPc-1, KRAS G12D mutant human pancreatic cancer cell Panc 04.03, KRAS G12D mutant human pancreatic cancer cell HPAC, KRAS G12V mutant human lung squamous cell carcinoma cell SW900, and KRAS WT human gastric cancer cell MKN1. The specific procedures were as follows:
(§2) 10 μL of each compound solution diluted in a gradient was added to corresponding wells of a 96-well low-adsorption microplate (PerkinElmer), so that the final concentrations of the test compounds in the reaction system were in a range of 10000-0.026 nM. The final concentration of DMSO was 0.2%. Then 90 µL of cells were correspondingly seeded into each well to achieve a cell density of 5×10^2 cells/well (the cell density of SW900 was 5×10^1 cells/well, and the cell density of MKN1 was 1×10^3 cells/well). In addition to test wells for the test compounds, both a DMSO control well and a medium control well were set, with the DMSO control well containing DMSO and cells and the medium well containing only a medium. After the sample loading, the 96-well low-adsorption microplate was incubated in an incubator at 37° C. with 5% carbon dioxide for 7 days. After 7 days, the microplate was taken out, and 100 μL of CTG reagent (Promega) was added to each well. The plate was incubated at room temperature for 60 min and read on a microplate reader EnVision by the chemiluminescence program. The inhibition rates of the compounds at each concentration were calculated using the formula for the percentage inhibition of cell proliferation: inhibition rate %=(mean value of DMSO control group−single concentration reading value of compound)/(mean value of DMSO control group−mean value of medium control group)×100. Then non-linear curve fittings for logarithmic concentration-inhibition rate were performed by GraphPad Prism 8, and the IC50 values of the compounds were obtained (Table 5).

The test system of experiment [4] is KRAS G12D mutant human pancreatic cancer cell HPAC. Description: 3D cell proliferation inhibition assay, HPAC. The conditions noted are these: 168 h, 7 days, CTG. It is filed as cell-based.
From the text: as §1, §2

Experiment [5] relates to KRAS G12D mutant human gastric cancer cell AGS. Description: 3D cell proliferation inhibition assay, AGS. The conditions noted are these: 168 h, 7 days, CTG, numeric values. It is filed as cell-based. The gist of the method:
(§3)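 Compound dilutions are added to low-adsorption wells, then cells at 5×10^2 cells/well. Final compound range is 10000–0.026 nM, with 0.2% DMSO. After 7 days at 37 °C with 5% CO2, CTG reagent is added and luminescence is read 60 min later. IC50 is fitted from inhibition relative to DMSO and medium controls.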

Experiment [6] has as its system KRAS G12D mutant human pancreatic cancer cell Panc 04.03. The experiment is described as follows: 3D cell proliferation inhibition assay, Panc 04.03. It is filed as cell-based. Conditions: 168 h, Panc 04.03, 7 days, CTG, numeric values.
From the text: as §1, §2

Experiment [7] addresses T2, Human KRAS G12D 6His-tagged (Homo sapiens, UniProt P01116, G12D).
T2 construct: purchased PerkinElmer
The experiment is described as follows: KRAS-G12D/GTP binding assay (HTRF). Conditions: numeric values. As for the experimental part: In this method, the inhibitory effects of the compounds on the binding of KRAS-G12D to GTP were assayed by a homogeneous time-resolved fluorescence (HTRF) technique using a KRAS-G12D/GTP binding assay kit (PerkinElmer).
The experimental procedures were as follows (refer to the kit instructions for detailed test methods): the compounds of the present disclosure were each firstly dissolved in DMSO at a concentration of 20 mM, and then diluted in an equal gradient with a buffer in the kit, so that the final concentrations of the test compounds in the reaction system were in a range of 0.02-5000 nM, and the final concentration of DMSO was 0.5%. 5 μL of each compound was incubated with 5 μL of 1× Human KRAS G12D 6His-tagged (PerkinElmer), 5 μL of 1×6His Eu Cryptate Antibody (PerkinElmer), and 5 μL of 1×GTP Red reagent (PerkinElmer) in a 384-well plate (Greiner) at 25° C. for 1 h. After the incubation was completed, the fluorescence intensity of each well was measured at the excitation wavelength of 337 nm and the emission wavelengths of 620 nm and 665 nm with an EnVision microplate reader (PerkinElmer) in the HTRF mode, and Ratio values were calculated using the formula: Ratio=(665 nm/620 nm)×[…]. The inhibition rates of the compounds at each concentration were calculated by comparing the fluorescence intensity ratio with that of the control group. Then non-linear curve fittings for logarithmic concentration-inhibition rate were performed using the GraphPad Prism 8 analysis software, and the IC50 values of the compounds were obtained (Table 2).

Experiment [8] deals with KRAS G12D mutant human lung cancer cell A427. Description: 3D cell proliferation inhibition assay, A427. It is filed as cell-based. The conditions noted are these: A-427, 168 h, A427, 7 days, CTG, numeric values. The gist of the method: as §3

T1 sequence (P01116 1-188 isoform P01116-2 G12D): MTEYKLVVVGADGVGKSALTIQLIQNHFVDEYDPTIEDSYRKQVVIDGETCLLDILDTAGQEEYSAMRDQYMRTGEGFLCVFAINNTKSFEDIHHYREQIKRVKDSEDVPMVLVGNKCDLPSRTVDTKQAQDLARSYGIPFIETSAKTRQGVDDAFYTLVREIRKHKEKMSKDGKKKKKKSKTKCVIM
T2 sequence (P01116 1-188 isoform P01116-2 G12D): as above

What is called DC50 is the concentration giving 50% degradation. Low values mean degradation at low concentration, high ones degradation only at high concentration. Usually Dmax stands for the greatest extent of degradation seen. A lower Dmax goes with a partial loss of target. A word on the IC50: it is the midpoint of a concentration-inhibition curve. Read a low IC50 as greater potency in that assay. Turning to `[2H]C([2H])(C1CCC2(CC1)CCN(C(=O)c1ccc(C)c(N3CCC(=O)NC3=O)c1)CC2)N1CCN(CC2(COc3nc(N4CC5CCC(C4)N5)c4ccc(-c5cc(O)cc6ccc(F)c(C#C)c56)c(F)c4n3)CC2)CC1` [Example 107, 1-(5-(9-((4-((1-(((4-(3,8-diazabicyclo[3.2.1]octan-3-yl)-7-(8-ethynyl-7-fluoro-3-hydroxynaphthalen-1-yl)-8-fluoroquinazolin-2-yl)oxy)methyl)cyclopropyl)methyl)piperazin-1-yl)methyl-d2)-3-azaspiro[5.5]undecane-3-carbonyl)-2-methylphenyl)dihydropyrimidine-2,4(1H,3H)-dione], the DC50 came to 4.98 nM at KRAS-G12D [1] and 13.7 nM at KRAS-G12D [2]. The Dmax on KRAS-G12D [1] (A-427) came out at 94.7%; on KRAS-G12D [2], 97.5%. In addition, the results for the IC50 in experiment [3] and in experiment [4] were 27.5 nM and 10.8 nM, respectively.

For `COc1ccc(C(=O)N2CCC3(CCC(CN4CCN(CC5(COc6nc(N7CC8CCC(C7)N8)c7cnc(-c8cc(O)cc(Cl)c8C8CC8)c(F)c7n6)CC5)CC4)CC3)CC2)cc1N1CCC(=O)NC1=O` [Example 89], the half-maximal degradation concentration (DC50) at KRAS-G12D [2] was found to be 94.7 nM. The Dmax at KRAS-G12D [2] was 69%. Further, the values for the IC50 in experiment [5], in experiment [3] and in experiment [4] were 8.65 nM, 11.5 nM and 12.8 nM, respectively.

Molecule `C#Cc1c(F)ccc2cc(O)cc(-c3ccc4c(N5CC6CCC(C5)N6)nc(OC[C@H](C)CN5CCN(CC6CCC7(CC6)CCN(C(=O)c6ccc(OC)c(N8CCC(=O)NC8=O)c6)CC7)CC5)nc4c3F)c12` [Example 207, 1-(5-(9-((4-((R)-3-((4-(3,8-diazabicyclo[3.2.1]octan-3-yl)-7-(8-ethynyl-7-fluoro-3-hydroxynaphthalen-1-yl)-8-fluoroquinazolin-2-yl)oxy)-2-methylpropyl)piperazin-1-yl)methyl)-3-azaspiro[5.5]undecane-3-carbonyl)-2-methoxyphenyl)dihydropyrimidine-2,4(1H,3H)-dione] displayed a 50% degradation concentration (DC50) at KRAS-G12D [2] of 15.1 nM. The molecule also showed a Dmax at KRAS-G12D [2] of 99.7%. The figures for the IC50 in experiment [5], in experiment [3] and in experiment [6] were 11.2 nM, 16.1 nM and 34.5 nM, respectively.

For `C#Cc1c(F)ccc2cc(O)cc(-c3ncc4c(N5CC6CCC(C5)N6)nc(OCC(C)CN5CCN(CC6CCC7(CC6)CCN(C(=O)c6ccc(C)c(N8CCC(=O)NC8=O)c6)CC7)CC5)nc4c3F)c12` (stereo not shown) [Example 108, 1-(5-(9-((4-(3-((4-(3,8-diazabicyclo[3.2.1]octan-3-yl)-7-(8-ethynyl-7-fluoro-3-hydroxynaphthalen-1-yl)-8-fluoropyrido[4,3-d]pyrimidin-2-yl)oxy)-2-methylpropyl)piperazin-1-yl)methyl)-3-azaspiro[5.5]undecane-3-carbonyl)-2-methylphenyl)dihydropyrimidine-2,4(1H,3H)-dione], the IC50 in experiment [7] worked out at 3.22 nM; in experiment [3], 4.53 nM; in experiment [4], 6.87 nM.

At KRAS-G12D [2], `C#Cc1c(F)ccc2cc(O)cc(-c3ncc4c(N5CC6CCC(C5)N6)nc(OC[C@@H](C)CN5CCN(CC6CCC7(CC6)CCN(C(=O)c6ccc(OC)c(N8CCC(=O)NC8=O)c6)CC7)CC5)nc4c3F)c12` [Example 254, 1-(5-(9-((4-((S)-3-((4-(3,8-diazaspirobicyclo[3.2.1]octan-3-yl)-7-(8-ethynyl-7-fluoro-3-hydroxynaphthalen-1-yl)-8-fluoropyrido[4,3-d]pyrimidin-2-yl)oxy)-2-methylpropyl)piperazin-1-yl)methyl)-3-azaspiro[5.5]undecane-3-carbonyl)-2-methoxyphenyl)dihydropyrimidine-2,4(1H,3H)-dione] registered a DC50 of 32.5 nM. The molecule further had a Dmax at KRAS-G12D [2] of 83.4%. Further, the IC50 was determined as 74.7 nM in experiment [8], 13 nM in experiment [5], 7.85 nM in experiment [3] and 14.3 nM in experiment [4].
